Laboratory results published in US9766236B2, “Taste receptor internalization assay” (PepsiCo, Inc., priority 2013, dated 2017).
Residues, ends and D or L forms follow the SMILES beside them.

Tests used:
[1] = molecular target: T1, T2R14 (Homo sapiens, UniProt Q9NYV8); assay: High-content imaging ring assay for T2R14 internalization in NCI-H716 cells; assay type: cell-based; conditions: compounds used at 10 mM, 37° C., immunofluorescence
T1 construct: These cells express the bitter receptors T2R1, T2R3, T2R4, T2R5, T2R7, T2R8, T2R9, T2R10, T2R13, T2R14; endogenous in cells; host or cells: NCI-H716 (ATCC CCL-251)
T1 sequence (Q9NYV8 1-317): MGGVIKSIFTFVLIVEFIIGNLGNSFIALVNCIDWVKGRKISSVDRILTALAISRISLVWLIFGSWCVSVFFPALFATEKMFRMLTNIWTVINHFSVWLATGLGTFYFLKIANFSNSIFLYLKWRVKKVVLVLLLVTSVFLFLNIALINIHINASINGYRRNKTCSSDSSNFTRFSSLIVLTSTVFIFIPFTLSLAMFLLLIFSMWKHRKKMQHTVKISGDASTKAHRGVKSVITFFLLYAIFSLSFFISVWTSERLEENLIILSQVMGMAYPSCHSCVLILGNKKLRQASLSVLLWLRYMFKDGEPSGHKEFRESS
From the text: The internalization assay disclosed herein, also called a “ring assay,” detects localization of receptors using antibodies specific for the receptors. A first detectable label, specific for nucleic acid (e.g., DAPI, Hoechst 33342, DRAQ5, DRAQ7, DRAQ9), is used to label cell nuclei; this labeling provides information such as the number of cells in a field and differentiates between the nuclear (e.g., DAPI-positive) and cytoplasmic (e.g., DAPI-negative) compartments. Antibodies which specifically bind to a taste receptor are used in conjunction with secondary antibodies conjugated with a second detectable label which can be differentiated from the first detectable label (e.g., FITC, TRITC, Cy3, Cy5, Alexa 350, 488, 546, 555, 568, 594, 633, 647). Diffuse circle staining is observed in the absence of a stimulus (e.g., in the presence of buffer alone). In the presence of a stimulus, however, a “ring” of internalized receptors is visualized. In some embodiments, ring-positive cells are calculated by correlation coefficient for pixel values of the nuclear and receptor signals. The extent of internalization can be expressed as percentage (mean±SD) of cells showing a continuous ring staining from multiple (e.g., quadruplicate) data points. NCI-H716 cell were grown in RPMI1690 media supplemented with 10% fetal bovine serum. Cells were seeded at density of 20,000 cells/well on PDL-coated 384-well plates. […] Alexa 488-conjugated antibodies and Hoechst 33342 were from Life Technology. 20,000 cells in PBS+10% FBS were plated on clear-bottom, PDL-coated, black-wall 384-well plates suitable for HCA imaging. For […] studies compounds were added to the cells. Stock solutions of all compounds were diluted in dimethyl sulfoxide (DMSO) and used at 10 mM. Control groups of cells also received DMSO (0.1%) in medium. NCI-H716 cells were stimulated with RebA (Purecircle) at 10 mM for indicating time points at 37° C. The cells were then fixed and processed for indirect immunofluorescence with antibodies against bitter receptor […]. All images were acquired with a 20× objective using ImageXpress Micro automated microscope. Hoechst 33342 staining is pseudo-colored blue and antibody specific staining is pseudo-colored green. […] The extent of internalization is expressed as the percentage (means±S.D.) of cells showing a continuous “Ring” staining from quadruplicate data points. Recycling of […] receptor correlates with decreased number of “Ring”-positive cells. Statistical analyses and graphs were made with Tibco Spotfire or GraphPad Prism.

[2] = molecular target: T2, GLUT4 (Homo sapiens, UniProt P14672); assay: High-content imaging ring assay for GLUT4 internalization in NCI-H716 cells; assay type: cell-based; conditions: endogenous GLUT4, FIG. 4B
T2 construct: we tested internalization of endogenous GLUT4 in NCI-H716 cells; endogenous in cells; host or cells: NCI-H716 (ATCC CCL-251)
T2 sequence (P14672 1-509): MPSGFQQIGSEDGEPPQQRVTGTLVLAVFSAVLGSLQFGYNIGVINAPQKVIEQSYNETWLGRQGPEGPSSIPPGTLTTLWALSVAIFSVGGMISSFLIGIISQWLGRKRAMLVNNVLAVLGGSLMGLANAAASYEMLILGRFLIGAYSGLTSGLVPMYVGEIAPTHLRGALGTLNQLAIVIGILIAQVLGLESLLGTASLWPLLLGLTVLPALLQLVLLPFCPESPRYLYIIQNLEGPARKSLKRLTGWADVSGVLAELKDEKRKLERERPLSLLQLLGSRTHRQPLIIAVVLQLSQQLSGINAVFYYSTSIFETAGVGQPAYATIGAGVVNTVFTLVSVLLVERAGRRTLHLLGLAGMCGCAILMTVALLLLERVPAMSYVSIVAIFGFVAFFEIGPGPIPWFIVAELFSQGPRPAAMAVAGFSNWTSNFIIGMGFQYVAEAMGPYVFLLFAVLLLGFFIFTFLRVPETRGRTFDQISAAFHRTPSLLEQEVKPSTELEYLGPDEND
From the text: The internalization assay disclosed herein, also called a “ring assay,” detects localization of receptors using antibodies specific for the receptors. A first detectable label, specific for nucleic acid (e.g., DAPI, Hoechst 33342, DRAQ5, DRAQ7, DRAQ9), is used to label cell nuclei; this labeling provides information such as the number of cells in a field and differentiates between the nuclear (e.g., DAPI-positive) and cytoplasmic (e.g., DAPI-negative) compartments. Antibodies which specifically bind to a taste receptor are used in conjunction with secondary antibodies conjugated with a second detectable label which can be differentiated from the first detectable label (e.g., FITC, TRITC, Cy3, Cy5, Alexa 350, 488, 546, 555, 568, 594, 633, 647). Diffuse circle staining is observed in the absence of a stimulus (e.g., in the presence of buffer alone). In the presence of a stimulus, however, a “ring” of internalized receptors is visualized. In some embodiments, ring-positive cells are calculated by correlation coefficient for pixel values of the nuclear and receptor signals. The extent of internalization can be expressed as percentage (mean±SD) of cells showing a continuous ring staining from multiple (e.g., quadruplicate) data points.
To explore further the role of GLUT4 in signaling by artificial sweeteners, we tested internalization of endogenous GLUT4 in NCI-H716 cells.

| T2R14 internalization ("Ring"-positive cells) ([1]; FIG. 2) | T2R14 internalization ("Ring"-positive cells) ([1]; FIG. 2, listed as Reb A) | GLUT4 internalization ("Ring"-positive cells) [2] | SMILES |
| --- | --- | --- | --- |
| T2R14 internalization increases | induces T2R14 internalization |  | C=C1C[C@@]23CC[C@H]4[C@@](C)(CCC[C@@]4(C)C(=O)O[C@@H]4O[C@H](CO)[C@@H](O)[C@H](O)[C@H]4O)[C@@H]2CC[C@]1(O[C@@H]1O[C@H](CO)[C@@H](O)[C@H](O[C@@H]2O[C@H](CO)[C@@H](O)[C@H](O)[C@H]2O)[C@H]1O[C@@H]1O[C@H](CO)[C@@H](O)[C@H](O)[C@H]1O)C3 [RebA] |
| T2R14 internalization increases |  |  | C=C1C[C@@]23CC[C@H]4[C@@](C)(CCC[C@@]4(C)C(=O)O[C@@H]4O[C@H](CO)[C@@H](O)[C@H](O)[C@H]4O)[C@@H]2CC[C@]1(O[C@@H]1O[C@H](CO)[C@@H](O)[C@H](O[C@@H]2O[C@H](CO)[C@@H](O)[C@H](O)[C@H]2O)[C@H]1O[C@@H]1O[C@@H](C)[C@H](O)[C@@H](O)[C@H]1O)C3 [RebC] |
| internalization was not observed |  |  | C=C1C[C@@]23CC[C@H]4[C@@](C)(CCC[C@@]4(C)C(=O)O[C@@H]4O[C@H](CO)[C@@H](O)[C@H](O)[C@H]4O[C@@H]4O[C@H](CO)[C@@H](O)[C@H](O)[C@H]4O)[C@@H]2CC[C@]1(O[C@@H]1O[C@H](CO)[C@@H](O)[C@H](O[C@@H]2O[C@H](CO)[C@@H](O)[C@H](O)[C@H]2O)[C@H]1O[C@@H]1O[C@H](CO)[C@@H](O)[C@H](O)[C@H]1O)C3 [RebD] |
|  |  | GLUT4 internalization increased | CC1=CC(=O)[N-]S(=O)(=O)O1.[K+] [Ace-K] |
|  |  | GLUT4 internalization increased | COC(=O)[C@H](Cc1ccccc1)NC(=O)[C@@H](N)CC(=O)O [aspartame] (H-Asp-Phe-OMe) |
|  |  | GLUT4 internalization increased | O=C1NS(=O)(=O)c2ccccc21 [saccharine] |
